Measured values published in patent publication US20260283999A1, “STAT3 INHIBITOR TO TREAT SU[…]” (UNIVERSITY OF FLORIDA RESEARCH FOUNDATION, INCORPORATED, priority 2022, published 2026).

How the values were obtained:
SAH model [1] = assay: Immunohistochemistry of brain slices after SAH (p-STAT3, Arg1, Cox2, iNOS, TLR-4); assay type: in vivo; settings: mice, following SAH; 5 mg/kg on days 1, 2, and 3 following SAH
Procedure: (§1) Studies were conducted wherein repetitive dosing on days 1, 2, and 3 following SAH occurred with 5 mg/kg of the p-STAT3 inhibitor. […] The STAT inhibitor used in these studies was LLL12B.
The SAH model utilized modified autologous blood injection to basal cisterns adjacent to right anterior circulation. [Dodd W S, Noda I, Martinez M, Hosaka K, Hoh BL. NLRP3 inhibition attenuates early brain injury and delayed cerebral vasospasm after subarachnoid hemorrhage. J Neuroinflammation. 2021; 18 (1): 163.]. Briefly, mice we anesthetized with 10 mg/kg xylazine and 100 mg/kg ketamine prior to shaving/cleaning the scalp. The tail was prepped, shaved, and cleaned. The mouse's head was fixed to the stereotaxic frame and body temperature maintained at 37° C. using a heating pad. The scalp was incised along the sagittal suture from bregma to the nasal bone. The skin was reflected and held in place by retraction. The burr hole was positioned 5.0 mm rostral to bregma and 0.5 mm right of midline. Next, 150 μL of arterial blood was drawn from the tail artery. 50 μL of blood was drawn up into a Hamilton syringe. The syringe needle was passed at a 30° caudal angle until it reached the skull base. The syringe was left in place and blood was manually injected at a rate of 10 μL/min. The mouse's respiratory rate was closely monitored. […]

SAH model [2] = assay: Cerebral blood flow by laser speckle perfusion imaging after SAH; assay type: in vivo; settings: mice, 48 hours after SAH; 5 mg/kg repetitive dosing following SAH; FIG. 3
Procedure: as §1
The SAH model utilized modified autologous blood injection to basal cisterns adjacent to right anterior circulation. [Dodd W S, Noda I, Martinez M, Hosaka K, Hoh BL. NLRP3 inhibition attenuates early brain injury and delayed cerebral vasospasm after subarachnoid hemorrhage. J Neuroinflammation. 2021; 18 (1): 163.]. Briefly, mice we anesthetized with 10 mg/kg xylazine and 100 mg/kg ketamine prior to shaving/cleaning the scalp. The tail was prepped, shaved, and cleaned. The mouse's head was fixed to the stereotaxic frame and body temperature maintained at 37° C. using a heating pad. […] The mouse's respiratory rate was closely monitored. […]
Four mice per group were utilized. Cerebral blood flow was measured with a laser speckle perfusion imager at 48 hours after SAH. […] Sufficient readings were able to be achieved without bone flap removal. […] Average perfusion per animal was documented and an imaging voxel with a calculated mean of 9.7 was used to measure bilateral MCA territory perfusion. A ratio of right to left MCA perfusion was calculated for each animal to allow reliable comparisons between groups and to control for variance in baseline blood pressure differences. […]

SMILES: CN(C)C(=O)Oc1cccc2c1C(=O)c1cccc(S(N)(=O)=O)c1C2=O [LLL12B]
- systemic neuroinflammation (immunochemistry) (SAH model [1]): reduces systemic neuroinflammation
- cerebral blood flow (SAH model [2]): protective benefit for cerebral blood flow showing decreased risk for ischemia
